Structures are written as SMILES.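 Five concentrations, 48 hours, 96-well plates. Here, GI50 denotes the concentration required for 50% inhibition of growth. TGI: total growth inhibition.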 Where only a bound is given, the exact number is not on record here.

This passage reports TGI and GI50 results from PubChem BioAssay (NCI).

Among the test systems are KM20L2 colon; XF 498 CNS; DMS 273 small cell lung; DLD-1 colon; LXFL 529 NSCLC; HOP-18 NSCLC; RXF-631 renal; SN12K1 renal; P388/ADR leukemia; M19-MEL melanoma; P388 leukemia.
Holding throughout (experiment): NCI tumour cell line growth inhibition, 48 h

Take `Nc1ccccc1Nc1ccccc1C(=O)[O-].Nc1ccccc1Nc1ccccc1C(=O)[O-].[Cu+2]`: the TGI in the experiment on KM20L2 colon and in the experiment with XF 498 CNS was over 100 µM in each case.
For `CC(C)CC(N)C(=O)OCN1C(=O)C2C3C=CC(C2C1=O)C1C2C(=O)N(COC(=O)C(N)CC(C)C)C(=O)C2C31` (configuration not stated), the TGI in the experiment on DMS 273 small cell lung, in the experiment on DLD-1 colon, in the experiment with LXFL 529 NSCLC, in the experiment on KM20L2 colon, in the experiment with HOP-18 NSCLC and with RXF-631 renal was over 100 µM each time.
As to `COC1OC(=O)[C@H]2O[N+]([O-])=C(C)[C@@H]12` (some centres not stated), the TGI in the experiment on SN12K1 renal, with DLD-1 colon, with P388/ADR leukemia, in the experiment with KM20L2 colon, in the experiment on HOP-18 NSCLC and in the experiment with M19-MEL melanoma was over 100 µM throughout. Also, the TGI in the experiment with P388 leukemia and in the experiment on XF 498 CNS was over 100 µM each time.
As for `O=[Se]([O-])c1ccccc1.O=[Se]([O-])c1ccccc1.[OH3+].[OH3+].[Pt+2]`, the GI50 was 14.6 µM with DMS 273 small cell lung; 4.5 µM with SN12K1 renal; 4.85 µM in the experiment with DLD-1 colon; 2.12 µM with P388/ADR leukemia; 8.88 µM in the experiment on KM20L2 colon; 15.1 µM with HOP-18 NSCLC. In addition, the GI50 in the experiment on M19-MEL melanoma was 8.43 µM; in the experiment with P388 leukemia, 1.84 µM; in the experiment with XF 498 CNS, 7.72 µM. The TGI with DMS 273 small cell lung is 36 µM; with SN12K1 renal it was 15 µM; with DLD-1 colon, 24.3 µM; in the experiment with P388/ADR leukemia, 11.8 µM; in the experiment on KM20L2 colon, 35.1 µM; with HOP-18 NSCLC it was 60.6 µM. Further, the TGI amounted to 44.8 µM in the experiment with M19-MEL melanoma, 5.67 µM with P388 leukemia and 26.2 µM with XF 498 CNS.
With `Nc1n[nH]c(=O)[nH]1`, the TGI in the experiment with DMS 273 small cell lung, with SN12K1 renal, with DLD-1 colon, in the experiment with P388/ADR leukemia, in the experiment with KM20L2 colon and in the experiment on M19-MEL melanoma was over 100 µM in each case. Also, the TGI with P388 leukemia and in the experiment on XF 498 CNS was over 100 µM in each case.
